Source: PMC4449000, “Acyclovir Has Low but Detectable Influence on HLA-B*57:01 Specificity without Inducing Hypersensitivity” (PLoS ONE, 2015)
Where “and” joins values, the source holds several entries; their conditions need not be identical. Equal entries are not always repeated. Structures can show the parent of a compound that is named as a salt. Where two headings read alike, the source gives them in different places. Ends that are not written are not given here.

Experiments:
[1] = test system: HLA-B*57:01 positive PBMC; assay: Culture and detection of drug responsive T cells (intracellular IFN-γ, flow cytometry); format: cell-based, human; conditions: 10 μg/mL drug, 14 day culture, restimulation with drug treated C1R.B57; two of two donors
Description: Drug responsive short-term T cell lines were produced from cryopreserved PBMC, as previously described. […] From day 3 and every 3 days, 50% of media was replaced and 20 U/ml of recombinant human interleukin (IL)-2 (Peprotech) was added to cultures. […] Samples were surface labeled for CD4 and CD8 expression on ice and then fixed and permeabilized for the detection of intra-cellular IFN-γ, as previously described. Abacavir responsive cells were then detected using flow cytometry (Gallios; Beckman Coulter). Lymphocytes were gated on the basis of forward and side scatter properties. The lymphocyte gate was then gated for CD8, but not CD4, positivity using a Boolean logic gate. The frequency of CD8 and IFN-γ double positive cells was determined using Kaluza software (Beckman Coulter).

[2] = test system: HLA-B*57:01 single allele transfected 721.221 cell line; conditions: abacavir; not measured in this paper, no reference printed at b57; cited from earlier work
[3] = target: T1, purified HLA-B*57:01 (Homo sapiens, UniProt P01889, D201E/D98Y/E176V/E187L/E204Q/E69M/E70A/G107R/I90N/K202T/L105A/L119I/N104I/N87E/Q89R/Q94S/R106L/R155S/R180L/R86G/S101N/S121V/S35A/S48A/T118I/V36M/Y140S/Y91M); assay: HLA binding assay: inhibition of binding of a radiolabeled standard peptide to purified HLA-B*57:01 (competition); conditions: for number of the 7 peptides ending in I with increased affinity for HLA-B*57:01: 7 individual peptides with I at P9, two independent runs in triplicates (Fig 5); for IC50: Mean ± SEM, S5 Fig, unit inferred
[4] = target: HLA-B*57:01 (Homo sapiens, UniProt P01889, D201E/D98Y/E176V/E187L/E204Q/E69M/E70A/G107R/I90N/K202T/L105A/L119I/N104I/N87E/Q89R/Q94S/R106L/R155S/R180L/R86G/S101N/S121V/S35A/S48A/T118I/V36M/Y140S/Y91M); assay: Direct binding of radiolabeled […] to HLA-B*57:01 without competitor peptide; conditions: increasing doses of drug, four experimental runs in triplicates (Fig 6A)
Description: (§1) Quantitative assays to measure the binding affinity of peptides to purified HLA-B*57:01 molecules based on the inhibition of binding of a radiolabeled standard peptide were performed as previously described. Briefly, 1–10 nM of radiolabeled peptide was co-incubated at room temperature with 1 nM to 1 μM purified HLA-B*57:01 in the presence of 1–3 μM human β2-microglobulin (Scripps Laboratories; San Diego, CA) and a mixture of protease inhibitors. After a 2-day incubation, binding of the radiolabeled peptide to the MHC class I molecule was determined by capturing MHC/peptide complexes on Greiner Lumitrac 600 microplates (Greiner Bio-One; Monroe, North Carilina) coated with the W6/32 antibody, and measuring bound counts per minute (cpm) using the TopCount microscintillation […] counter (PerkinElmer; Waltham, Massachusetts). For competition assays, the concentration of peptide yielding IC50 of the binding of the radiolabeled peptide was calculated. Peptides were typically tested at six different concentrations covering a 100,000-fold dose range.
(§2) For direct binding studies in the absence of a competitor peptide, a purified peptide with sequence […] was ordered from Synthetic Biomolecules (San Diego, CA) and its affinity for either HLA-B*57:01 or HLA-B*58:01 was tested in the presence or absence of abacavir, or acyclovir, in a dose dependent manner.

[5] = target: HLA-B*58:01 (Homo sapiens, UniProt P01889, A329T/C349S/D201E/D98Y/E176V/E187L/E204Q/E69T/G107R/I218V/I90N/K202T/L105A/L119I/N104I/N87E/Q89R/Q94S/R106L/R155S/R180L/R86G/S101N/S121R/S35A/S48A/T118I/V127L/V306I/V36M/Y140S/Y91M); assay: Direct binding of radiolabeled […] to HLA-B*58:01 (control); conditions: control allele (Fig 6B)
Description: as §1, §2

[6] = target: T1, purified HLA-B*57:01; conditions: previously observed; cited from earlier work
[7] = test system: HLA-B*57:01 single allele transfected 721.221 cell line; assay: Peptide elution and LC-MS identification from drug-treated cells; format: cell-based, human
Description: For elution studies, 4–5 x 10^9 cells from the HLA-B*57:01 single allele transfected 721.221 cell line were used. Treated cells were incubated with acyclovir at a concentration of 500 μg/mL for 14 hr at 37°. Cells were harvested and stored at -80°C. Upon thawing, cells were lysed using cell lysis buffer in the presence of protease inhibitors. The lysate was centrifuged at 100,000 x g for 1 hr and the supernatant was collected and passed through a 0.8/0.2 μm filter (VWR International, TX). The filtrate was collected and passed through a sepharose CL-4B (Sigma-Aldrich, MO) column to capture any remaining materials in the lysate that may clog the antibody columns. The filtrate was then passaged through a column packed with protein A sepharose (PAS) beads (sigma) coated with MK-D6 (MTCC HB-3, VA) antibody which served to as an irrelevant antibody (specific for the mouse class II molecule, I-A^d) used to derive a negative control peptide extract. Next, the filtrate was passed through a second PAS column coated with W6/32 antibody (MTCC HB-95) which captures HLA class I molecules. The columns were washed sequentially with: 1) 2 column volumes of lysis buffer, 2) 20 column volumes of 20 mM Tris-HCL (pH 8.0, 150 mM NaCl), 3) 20 column volumes of 20 mM Tri-HCl (pH 8.0, 1.0 M NaCl), and 4) 20 column volumes of 20 mM Tris-HCl (pH 8.0), and then eluted with 4 column volumes of 0.2 M glacial acetic acid. The eluted peptides were then collected and spun at 3,500g at 4°C until 98% of the solution had passed through Millipore ultrafiltration units with a 3,500 Da cut-off (EMD Millipore, MA) to exclude β-2 microglobulin. The filtrate was then collected and concentrated in vacuo for LC-MS analysis.
Peptides were analyzed by nanoflow high-performance liquid chromatography (HPLC)/microelectrospray ionization, coupled directly to a Thermo Fisher Scientific FT-ICR mass spectrometer, equipped with a home-built, front-end electron transfer dissociation (FETD) source. An aliquot of peptide sample was taken to dryness in a vacuum concentrator. Peptides were amidated in a solution that contained 1M histamine-HCl (20 μL) in 1M pyridine-HCl buffer and 0.1M EDC in pyridine-HCl buffer. The solution was sonicated for 3 hours before being dried in a vacuum concentrator and then reconstituted in 0.1% acetic acid.
Data were acquired as previously described. In brief, a pre-column, loaded with 5×10^7 to 2×10^8 cell equivalents of HLA-B*57:01 eluted peptides was connected with polytetrafluoroethylene tubing (0.06-in. o.d. and 0.012-in. i.d.; Zeus Industrial Products) to the end of an analytical HPLC column (360 μm o.d.×50 μm i.d.) containing 6–7 cm of C18 reverse-phase packing material (5-μm particles; YMC). […]

In the case of `Nc1nc(NC2CC2)c2ncn([C@H]3C=C[C@@H](CO)C3)c2n1` [abacavir, Abacavir sulfate], the “drug specific CD8+/IFN-γ+ T-cell response in PBMC primed and restimulated with the same drug” value [1] is listed as “expanded population of CD8 positive / IFN-γ positive T-cells”, the “peptides with a C-terminal valine presented exclusively in the presence of the drug” value [2] is listed as 15 and the “number of the 7 peptides ending in I with increased affinity for HLA-B*57:01” value [3] is listed as “all seven”. The “largest change / increase of peptide binding affinity (IC50) for HLA-B*57:01 in the presence of the drug” value ([3]; individual peptides, summary statement) was ≤ 1000 fold and 1,000 fold, the “increase in the level of bound peptide […] on HLA-B*57:01” value ([4]; radiolabeled […]) was “up to 5 fold” and the “effect of drug on binding of […] to HLA-B*58:01” value ([5]; radiolabeled […]) was “unaffected”. The “increase in affinity for I and V peptides in the presence of abacavir (PSCPL)” value [6] was 10 fold.

With RARQLNYTI the IC50 ([3]; 0.5 mg/mL acyclovir, p < 0.01 vs vehicle, read-out: IC-50 for HLA-B*57:01, 0.5 mg/mL acyclovir) was 7.1 ± 1 nM and the IC50 ([3]; vehicle, read-out: IC-50 for HLA-B*57:01, vehicle) was 13.7 ± 1.3 nM.

For `Nc1nc2c(ncn2COCCO)c(=O)[nH]1` [acyclovir], the “unique peptide sequences identified from the drug treated sample only” value ([7]; acyclovir 500 μg/mL, 14 hr, 37°, excludes 91 sequences present in both samples) was 169, the “number of eluted peptides with a C-terminal isoleucine in the presence of the drug” value ([7]; acyclovir 500 μg/mL, 14 hr, includes three peptides present in both samples, vs four in untreated, p = 0.073) was “twelve” and the “Number of peptides that do not have isoleucine at C terminus (Treated)” value ([7]; acyclovir treated cells, peptides found in both treated and untreated samples not included) was 160. For the same compound, the “Number of peptides that have isoleucine at C terminus (Treated)” value ([7]; acyclovir treated cells, peptides found in both treated and untreated samples not included, one-sided Fisher's exact test p = 0.0726) was 9, the “drug specific CD8+/IFN-γ+ T-cell response in PBMC primed and restimulated with the same drug” value [1] was “could not detect any acyclovir specific response” and the “number of the 7 peptides ending in I with increased affinity for HLA-B*57:01” value [3] was “two”. The “change in HLA-B*57:01 affinity of peptides ending in C” value ([3]; individual peptides with C at P9 (S4 Fig)) was “None of the peptides ending in C showed any change”, the “effect on HLA-B*57:01 binding affinity for three 9-mer peptides with a C-terminal valine” value ([3]; screen of seven drugs, one experimental run in quadruplicates (S3 Fig)) was “small but consistent increase” and the “increase in the level of bound peptide KAAKYRVSV on HLA-B*57:01” value ([4]; radiolabeled KAAKYRVSV) was 2 fold. The “effect of drug on binding of KAAKYRVSV to HLA-B*58:01” value ([5]; radiolabeled KAAKYRVSV) was “unaffected”.
